Target: ATP-dependent translocase ABCB1 (Homo sapiens, UniProt P08183)
Experiment: TP_TRANSPORTER: inhibition of Rhodamine 123 efflux (R123: 10 uM, Genistein: 200 uM) in BALB/c-3T3-1000 cells (MDR1-transfected)
Assay type: functional, cell-based
Details: mouse, balb/c-3t3-1000, 200 µM

Chain of ATP-dependent translocase ABCB1 (P08183 whole entry): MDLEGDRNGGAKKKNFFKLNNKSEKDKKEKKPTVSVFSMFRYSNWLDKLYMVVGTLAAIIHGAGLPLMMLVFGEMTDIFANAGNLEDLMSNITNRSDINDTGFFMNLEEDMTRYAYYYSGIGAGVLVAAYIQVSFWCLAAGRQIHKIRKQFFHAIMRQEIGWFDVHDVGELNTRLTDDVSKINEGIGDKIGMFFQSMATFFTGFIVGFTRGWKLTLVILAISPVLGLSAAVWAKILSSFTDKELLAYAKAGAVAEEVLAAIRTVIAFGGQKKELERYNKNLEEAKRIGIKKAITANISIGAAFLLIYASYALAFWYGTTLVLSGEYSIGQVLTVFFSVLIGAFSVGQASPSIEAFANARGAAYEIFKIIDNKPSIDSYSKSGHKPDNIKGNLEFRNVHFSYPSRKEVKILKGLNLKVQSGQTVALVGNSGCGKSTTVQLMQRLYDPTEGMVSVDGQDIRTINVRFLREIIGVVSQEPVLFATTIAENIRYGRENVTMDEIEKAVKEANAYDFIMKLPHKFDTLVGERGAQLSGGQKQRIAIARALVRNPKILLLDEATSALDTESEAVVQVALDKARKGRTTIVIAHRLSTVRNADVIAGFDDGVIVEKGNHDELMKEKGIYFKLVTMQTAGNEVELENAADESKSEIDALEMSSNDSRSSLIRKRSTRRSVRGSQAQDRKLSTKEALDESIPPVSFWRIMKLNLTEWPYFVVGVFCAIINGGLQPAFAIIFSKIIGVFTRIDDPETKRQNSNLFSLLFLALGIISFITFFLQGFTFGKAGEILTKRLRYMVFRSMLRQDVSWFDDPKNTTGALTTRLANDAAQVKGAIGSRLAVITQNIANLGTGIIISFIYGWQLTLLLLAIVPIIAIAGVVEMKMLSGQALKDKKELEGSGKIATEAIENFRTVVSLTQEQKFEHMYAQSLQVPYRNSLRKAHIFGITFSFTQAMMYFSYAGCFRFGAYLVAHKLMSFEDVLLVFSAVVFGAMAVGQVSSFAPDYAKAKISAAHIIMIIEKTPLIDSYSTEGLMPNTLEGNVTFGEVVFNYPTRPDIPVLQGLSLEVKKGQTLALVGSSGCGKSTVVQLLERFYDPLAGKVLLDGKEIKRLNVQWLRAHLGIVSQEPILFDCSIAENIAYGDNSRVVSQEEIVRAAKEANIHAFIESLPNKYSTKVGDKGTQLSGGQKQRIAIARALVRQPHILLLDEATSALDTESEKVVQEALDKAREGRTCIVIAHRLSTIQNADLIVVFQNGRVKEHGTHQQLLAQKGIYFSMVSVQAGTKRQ

- Inhibition: inhibitor [50-60 % inhibition]
Compound: O=c1c(-c2ccc(O)cc2)coc2cc(O)cc(O)c12 [GENISTEIN]

Reference: ChEMBL document CHEMBL2074229, “Inhibition of drug transport by genistein in multidrug-resistant cells expressing P-glycoprotein” (Biochem Pharmacol, 1997)
